Measured values reported in PMC6303142 (Saudi Journal of Biological Sciences, 2016).
≈ marks a conversion by molar mass, not a printed value. Where two headings read alike, the source gives them in different places.

Assays:
Staphylococcus aureus = assay: Broth microdilution MIC/MBC against planktonic cells; type: cell-based
soybean LOX-1 = target: T1, soybean LOX-1 (Glycine max, UniProt P08170); assay: Lipoxygenase; type: biochemical
T1 sequence (P08170 1-839): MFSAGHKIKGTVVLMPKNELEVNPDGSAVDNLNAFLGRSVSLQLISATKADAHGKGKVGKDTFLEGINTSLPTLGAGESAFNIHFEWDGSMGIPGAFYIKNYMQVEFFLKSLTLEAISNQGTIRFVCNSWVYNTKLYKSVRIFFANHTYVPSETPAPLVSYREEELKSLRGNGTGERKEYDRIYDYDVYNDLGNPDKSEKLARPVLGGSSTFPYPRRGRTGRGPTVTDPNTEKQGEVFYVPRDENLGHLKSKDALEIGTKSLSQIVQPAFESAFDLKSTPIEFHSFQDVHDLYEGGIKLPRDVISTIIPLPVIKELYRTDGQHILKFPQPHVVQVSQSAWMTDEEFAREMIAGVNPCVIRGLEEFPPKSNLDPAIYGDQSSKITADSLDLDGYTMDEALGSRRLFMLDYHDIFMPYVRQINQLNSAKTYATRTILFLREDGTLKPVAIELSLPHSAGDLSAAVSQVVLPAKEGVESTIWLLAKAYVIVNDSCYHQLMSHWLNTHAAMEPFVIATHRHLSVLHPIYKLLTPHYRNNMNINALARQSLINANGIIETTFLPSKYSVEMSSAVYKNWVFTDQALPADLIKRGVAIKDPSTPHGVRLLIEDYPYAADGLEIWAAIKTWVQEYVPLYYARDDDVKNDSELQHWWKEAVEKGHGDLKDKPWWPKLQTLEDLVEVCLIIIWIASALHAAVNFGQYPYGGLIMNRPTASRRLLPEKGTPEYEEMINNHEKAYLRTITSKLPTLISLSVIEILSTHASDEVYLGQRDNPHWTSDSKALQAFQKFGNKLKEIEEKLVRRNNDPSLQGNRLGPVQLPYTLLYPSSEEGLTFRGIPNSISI

[1] = test system: S. aureus (ATCC 25923 and F7 strains) biofilm; assay: Biofilm formation; type: cell-based, Staphylococcus aureus; conditions: 1/2 MIC, 24 h, F7 and ATCC 25923 strains, crystal violet
COX-2 = target: T2, COX-2 (Homo sapiens, UniProt P35354); assay: Cyclooxygenase; type: biochemical
T2 sequence (P35354 18-604): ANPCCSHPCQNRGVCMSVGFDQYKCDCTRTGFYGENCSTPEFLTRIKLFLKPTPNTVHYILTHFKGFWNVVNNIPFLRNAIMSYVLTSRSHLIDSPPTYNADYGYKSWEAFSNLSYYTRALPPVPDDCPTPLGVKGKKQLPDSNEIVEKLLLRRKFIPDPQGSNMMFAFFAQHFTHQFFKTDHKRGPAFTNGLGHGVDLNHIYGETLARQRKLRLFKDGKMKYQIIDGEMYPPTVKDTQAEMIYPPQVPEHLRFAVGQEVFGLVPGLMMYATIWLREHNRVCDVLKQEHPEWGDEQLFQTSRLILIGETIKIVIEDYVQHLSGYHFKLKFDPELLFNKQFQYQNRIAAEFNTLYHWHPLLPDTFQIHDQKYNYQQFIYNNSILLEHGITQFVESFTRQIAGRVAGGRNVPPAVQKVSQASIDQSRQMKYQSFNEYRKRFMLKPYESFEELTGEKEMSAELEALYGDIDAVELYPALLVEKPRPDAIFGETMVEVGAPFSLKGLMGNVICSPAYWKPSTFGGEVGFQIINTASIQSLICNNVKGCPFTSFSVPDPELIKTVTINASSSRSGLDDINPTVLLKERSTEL

S. aureus F7 strain = assay: Electron microscopy; type: cell-based, Staphylococcus aureus; conditions: DHC at MIC, 24 h, SEM and TEM
[2] = test system: human hepatoma HepG2 cells; conditions: ref Zampini et al. (2008); cited from earlier work
sPLA2 = type: biochemical
Artemia salina = assay: General
[3] = ATCC29213, S. aureus ATCC 29213, control strain
[4] = S. aureus clinical isolate 5 (F5), Met^r Oxa^r
[5] = S. aureus clinical isolate 7 (F7), Met^r Oxa^r Gen^r
[6] = S. aureus clinical isolate 8 (F8), Met^r Oxa^r
[7] = S. aureus clinical isolate 23 (F23), Met^r Oxa^r
[8] = S. aureus clinical isolate 31 (F31), Met^r Oxa^r Van^s

SMILES | MBC (Staphylococcus aureus; [3]) [µg/mL] | MIC (Staphylococcus aureus; [3]) [µg/mL] | MBC (Staphylococcus aureus; [4]) [µg/mL] | MIC (Staphylococcus aureus; [4]) [µg/mL] | MBC (Staphylococcus aureus; [5]) [µg/mL] | MIC (Staphylococcus aureus; [5]) [µg/mL] | MBC (Staphylococcus aureus; [6]) [µg/mL] | MIC (Staphylococcus aureus; [6]) [µg/mL] | MBC (Staphylococcus aureus; [7]) [µg/mL] | MIC (Staphylococcus aureus; [7]) [µg/mL] | MBC (Staphylococcus aureus; [8]) [µg/mL] | MIC (Staphylococcus aureus; [8]) [µg/mL] | IC50 (soybean LOX-1) [µM] | IC50 (COX-2) [µM] | Inhibition (%) sPLA2 (sPLA2; 10 μg/mL) [%] | other results
O=C(/C=C/c1ccccc1)c1ccc(O)cc1O [DHC, 2′,4′-dihydroxychalcone] | 50 (≈ 208 µM) | 50 (≈ 208 µM) | 100 (≈ 416 µM) | 25 (≈ 104 µM) | 100 (≈ 416 µM) | 25 (≈ 104 µM) | 100 (≈ 416 µM) | 25 (≈ 104 µM) | 200 (≈ 832 µM) | 25 (≈ 104 µM) | 200 (≈ 832 µM) | 100 (≈ 416 µM) | 414 | 7.16 | 60.50 ± 2.90 | biofilm formation inhibition [1]: most active pure compound; morphological changes in the cell appearance (S. aureus F7 strain): visible cellular aggregation, blebs on the cellular surface and cytoplasmic coagulation; genotoxicity [2]: did not find genotoxicity
O=c1c(O)c(-c2ccccc2)oc2cc(O)ccc12 [DHF, 3,7-dihydroxyflavone] | > 500 | 400 (≈ 1570 µM) | > 500 | 200 (≈ 787 µM) | > 500 | 200 (≈ 787 µM) | 400 (≈ 1570 µM) | 25 (≈ 98.3 µM) | > 500 | 200 (≈ 787 µM) | > 500 | 200 (≈ 787 µM) | 227 | 100 | 2.70 ± 0.20 | activity on sPLA2 (sPLA2; at the concentration assayed (10 μg/mL)): not active
COc1c(O)ccc(C(=O)/C=C/c2ccccc2)c1O [DHMC, 2′,4′-dihydroxy-3′-methoxychalcone] | 200 (≈ 740 µM) | 200 (≈ 740 µM) | 200 (≈ 740 µM) | 200 (≈ 740 µM) | 200 (≈ 740 µM) | 200 (≈ 740 µM) | 200 (≈ 740 µM) | 200 (≈ 740 µM) | 200 (≈ 740 µM) | 100 (≈ 370 µM) | 200 (≈ 740 µM) | 200 (≈ 740 µM) | 235 | – | 38.18 ± 1.80 | activity against COX-2 (COX-2; tested concentrations 10–150 μg/mL): not active
O=C1CC(c2ccccc2)Oc2cc(O)ccc21 (stereo not drawn) [HF, 7-hydroxyflavanone] | > 500 | – | > 500 | – | 200 (≈ 832 µM) | – | > 500 | – | > 500 | – | > 500 | – | – | – | – | –
COc1ccc2cc([C@H](C)C(=O)O)ccc2c1 [Naproxen, reference compound] | – | – | – | – | – | – | – | – | – | – | – | – | – | – | – | Inhibition (%) sPLA2 (sPLA2): 6.00 ± 0.40%
[Na+].[Na+].[O]=[Cr](=[O])([O-])[O][Cr](=[O])(=[O])[O-] [sodium dichromate] | – | – | – | – | – | – | – | – | – | – | – | – | – | – | – | LC50 (concentration that kills 50% of the A. salina larvae) (Artemia salina): 30 µg/mL
